Paper PMC10689823, “Discovery of a Drug-like, Natural Product-Inspired DCAF11 Ligand Chemotype” (Nature Communications, 2023)
Several values for one entry are separate records, joined by “and”; a condition that tells them apart may be missing. Equal entries are not always repeated.

How the values were obtained:
Format in all cases: cell-based
[1] = Cell viability assay (CellTiter-Glo) in Jurkat cells; settings: human, Jurkat cells; for viability at 72 h, 10 nmol/L: concentration 10 nmol/L; for viability at 72 h, 30 nmol/L: concentration 30 nmol/L; for viability at 72 h, 100 nmol/L: concentration 100 nmol/L; for viability at 72 h, 1000 nmol/L: concentration 1000 nmol/L; for viability at 72 h, 3000 nmol/L: concentration 3000 nmol/L; for viability at 72 h, 0.01 µM: 10 nM; for viability at 72 h, 0.03 µM: 30 nM; for viability at 72 h, 0.1 µM: 100 nM; for viability at 72 h, 0.3 µM: 300 nM; for viability at 72 h, 1 µM: 1000 nM
Method in brief: (§1)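 Jurkat and Hep G2 cells were exposed to compounds for 72 h, with an untreated plate counted at time zero. Viability was read as CellTiter-Glo luminescence after 10 min reagent incubation at room temperature.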

[2] = tested on: Jurkat cells; assay: as above; settings: for GI50: Homo sapiens; for GI50 / Relative cell viability (%): Jurkat cells, 72 h; for Relative cell viability (%): Fig. 4k; for Cell viability (%) relative to DMSO: individual replicates, Supplementary Fig. 7g
Method in brief: as §1

[3] = biological target: BRD2 (Homo sapiens, UniProt P25440); assay: BRD2 levels by Western blot in Jurkat cells; parameters: endogenous in cells; host or cells: Jurkat; Hep G2; MDA-MB-231; KBM7 (WT, DCAF11 KO, DDB1 KO); Dmax: dose or concentration left out as unconfirmed; settings: for degradation of BRD2: 3 µM, 6 h treatment
Method: Cells were washed with PBS and lysed in lysis buffer (50 mM Tris-HCl, pH 7.4, 150 mM NaCl, 1% Triton X-100, 1% sodium deoxycholate, 0.1% SDS) with complete protease inhibitor cocktail (Roche, 11836170001) for 30 min on ice. For Ramos cells, cell pellets were lysed in lysis buffer (50 mM Tris-HCl, pH 8, 150 mM NaCl, 1% NP-40, 0.5% sodium deoxycholate) with complete protease inhibitor cocktail. After centrifugation at 16,000 x g, the supernatant was transferred into a new tube and the protein concentration was determined by DC protein assay (BIO-RAD, 5000116). Proteins were separated by SDS-PAGE and transferred to a PVDF membrane (Thermo scientific, 0.45 μm, 88518). For PDEδ, BRD2, GAPDH, BRD4, Vinculin and BTK, the membranes were blocked with Intercept® Blocking Buffer (LI-COR Biosciences, 927-70001) at room temperature for 1 h. The primary antibodies for these proteins were diluted with Intercept® Blocking Buffer (1:500 for PDEδ, 1:3000 for Vinculin, and 1:1000 for other proteins) and incubated with the membranes overnight at 4 °C. Membranes were washed with PBS + 0.1% Tween 20 (PBS-T) five times and incubated with secondary antibodies conjugated to IRDye® Infrared Fluorescent Dyes (1:5000, LI-COR Biosciences) at room temperature for 1 h with protection from light. After washing the membrane, signals were visualized using the ChemiDoc MP Imaging System (BIO-RAD Laboratories). For detection of LC3B, BRD3, BLK, DCAF11, DDB1 RBX1, FIP200, V5- and FLAG-Tag the membranes were blocked with 5% milk in PBS-T at room temperature for 1 h. The primary antibodies for these proteins were diluted in 5% milk in PBS-T buffer (1:200 for BRD3, 1:1000 for other proteins) and incubated with the membranes overnight at 4 °C. Membranes were washed with PBS-T five times and incubated with HRP secondary antibodies (1:1500) at room temperature for 1 h. After washing the membrane, protein detection was performed using Western blotting detection reagent (Thermo Scientific, 34095) and the ChemiDoc MP Imaging System (BIO-RAD). Relative band intensities were quantified using Image Lab (BIO-RAD).

[4] = individual replicates, Supplementary Fig. 7g, read-out: Cell viability (%) relative to DMSO
[5] = 72 h, Fig. 4k, read-out: Relative cell viability (%)

Chain of BRD2 (P25440 whole entry): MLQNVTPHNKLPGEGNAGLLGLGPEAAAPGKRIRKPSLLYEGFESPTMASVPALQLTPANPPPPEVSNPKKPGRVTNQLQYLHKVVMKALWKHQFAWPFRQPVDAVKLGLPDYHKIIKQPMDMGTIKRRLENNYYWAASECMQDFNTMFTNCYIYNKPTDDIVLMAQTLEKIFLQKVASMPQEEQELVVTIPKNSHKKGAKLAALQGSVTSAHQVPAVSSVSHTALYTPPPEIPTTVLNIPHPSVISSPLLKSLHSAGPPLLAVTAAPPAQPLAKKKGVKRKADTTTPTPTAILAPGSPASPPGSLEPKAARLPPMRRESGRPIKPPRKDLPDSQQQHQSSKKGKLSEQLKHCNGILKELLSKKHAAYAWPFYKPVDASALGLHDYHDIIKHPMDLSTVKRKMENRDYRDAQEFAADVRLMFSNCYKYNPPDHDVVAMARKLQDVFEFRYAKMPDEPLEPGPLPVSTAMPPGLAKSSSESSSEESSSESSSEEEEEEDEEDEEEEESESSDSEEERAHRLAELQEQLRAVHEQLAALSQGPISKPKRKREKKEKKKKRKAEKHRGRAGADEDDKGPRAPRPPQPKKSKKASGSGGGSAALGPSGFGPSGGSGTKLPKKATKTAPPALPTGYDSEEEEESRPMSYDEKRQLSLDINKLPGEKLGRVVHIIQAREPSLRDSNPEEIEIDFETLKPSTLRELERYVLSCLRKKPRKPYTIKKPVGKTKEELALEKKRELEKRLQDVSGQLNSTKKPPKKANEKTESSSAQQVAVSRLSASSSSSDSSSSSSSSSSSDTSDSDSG

For `O=C1Nc2ccc(Br)cc2C1=Cc1cc(Br)c(O)c(Br)c1` [Compound 2], the viability at 72 h, 10 nmol/L [1, 4] was 95.2%, the viability at 72 h, 30 nmol/L [1, 4] was 91.8% and the viability at 72 h, 100 nmol/L [1, 4] was 87.9%. For the same compound, the viability at 72 h, 300 nmol/L ([1]; concentration 300 nmol/L, individual replicates, Supplementary Fig. 7g, read-out: Cell viability (%) relative to DMSO) was 89.9%, the viability at 72 h, 1000 nmol/L [1, 4] was 90.3% and the viability at 72 h, 3000 nmol/L [1, 4] was 86.4%. For the same compound, the viability at 72 h, 30000 nmol/L ([1]; concentration 30000 nmol/L, individual replicates, Supplementary Fig. 7g, read-out: Cell viability (%) relative to DMSO) was 44.6%, the viability at 72 h, 0.01 µM [1, 5] was 98.6% and the viability at 72 h, 0.03 µM [1, 5] was 96.8%. The viability at 72 h, 0.1 µM [1, 5] was 93.4%, the viability at 72 h, 0.3 µM [1, 5] was 95.1% and the viability at 72 h, 1 µM [1, 5] was 96.9%. It also gave a viability at 72 h, 3 µM ([1]; 72 h, 3000 nM, Fig. 4k, read-out: Relative cell viability (%)) of 93.5%, a viability at 72 h, 10 µM ([1]; 72 h, 10000 nM, Fig. 4k, read-out: Relative cell viability (%)) of 80.3% and a viability at 72 h, 30 µM ([1]; 72 h, 30000 nM, Fig. 4k, read-out: Relative cell viability (%)) of 59.8%. The GI50 [2] was over 30 µM, the “Relative cell viability (%)” value ([2]; 10 nM, 0.01 µM) was 109.397% and 95.8659% and the “Relative cell viability (%)” value ([2]; 30 nM, 0.03 µM) was 109.179% and 98.227%. For the same compound, the “Relative cell viability (%)” value ([2]; 100 nM, 0.1 µM) was 109.452% and 110.948%, the “Relative cell viability (%)” value ([2]; 300 nM, 0.3 µM) was 108.619% and 101.195% and the “Relative cell viability (%)” value ([2]; 1000 nM, 1 µM) was 100.635% and 106.748%. The “Relative cell viability (%)” value ([2]; 3000 nM, 3 µM) was 102.832% and 100.062%, the “Relative cell viability (%)” value ([2]; 10000 nM, 10 µM) was 99.6522% and 88.024% and the “Relative cell viability (%)” value ([2]; 30000 nM, 30 µM) was 74.0357% and 70.3951%. The “Cell viability (%) relative to DMSO” value ([2]; concentration 10 nmol/L) was 103.951% and 104.068%, the “Cell viability (%) relative to DMSO” value ([2]; concentration 30 nmol/L) was 103.682% and 105.344% and the “Cell viability (%) relative to DMSO” value ([2]; concentration 100 nmol/L) was 100.341% and 100.604%. For the same compound, the “Cell viability (%) relative to DMSO” value ([2]; concentration 300 nmol/L) was 97.5611% and 103.704%, the “Cell viability (%) relative to DMSO” value ([2]; concentration 1000 nmol/L) was 98.2177% and 99.0254% and the “Cell viability (%) relative to DMSO” value ([2]; concentration 3000 nmol/L) was 82.942% and 99.8195%. The “Cell viability (%) relative to DMSO” value ([2]; concentration 10000 nmol/L) was 67.1883% and 83.6742% and 92.9267%, the “Cell viability (%) relative to DMSO” value ([2]; concentration 30000 nmol/L) was 49.2545% and 60.9936% and the “BRD2 protein levels, ligands alone or in combination” value ([3]; 3 μM, 4 h) was “did not reduce BRD2 protein levels”.
`Cc1sc2c(c1C)C(c1ccc(Cl)cc1)=N[C@@H](CC(=O)NCCOCCOCCOCCOCCNC(=O)COc1c(Br)cc(/C=C3\C(=O)Nc4ccc(Br)cc43)cc1Br)c1nnc(C)n1-2` [Compound 9] showed a viability at 72 h, 10 nmol/L [1, 4] of 89.8%, a viability at 72 h, 30 nmol/L [1, 4] of 92.8% and a viability at 72 h, 100 nmol/L [1, 4] of 101%. For the same compound, the viability at 72 h, 1000 nmol/L [1, 4] was 13%, the viability at 72 h, 3000 nmol/L [1, 4] was 1.47% and the viability at 72 h, 0.01 µM [1, 5] was 100%. It also gave a viability at 72 h, 0.03 µM [1, 5] of 92%, a viability at 72 h, 0.1 µM [1, 5] of 64.6% and a GI50 [2] of 0.09 ± 0.02 µM. The “degradation of BRD2” value [3] was “potent degradation activity”, the “BRD2 levels after washout” value ([3]; 10 μM, 5 h prior to washout) was “did not recover” and the DC50 ([3]; 6 h, read-out: half-maximal degradation concentration (DC50) of BRD2) was 0.255 µM. For the same compound, the Dmax ([3]; 6 h, read-out: maximum level of degradation (Dmax) of BRD2) was 84% and the “hook effect for BRD2” value ([3]; 6 h, up to 50 µM concentration) was “almost no hook effect”.
Compound `Cc1sc2c(c1C)C(c1ccc(Cl)cc1)=NC(CC(=O)NCCOCCOCCOCCOc1c(Br)cc(C=C3C(=O)Nc4ccc(Br)cc43)cc1Br)c1nnc(C)n1-2` (stereo not shown) [Compound 10] has a viability at 72 h, 10 nmol/L [1, 4] of 89.7%, a viability at 72 h, 30 nmol/L [1, 4] of 90.1% and a viability at 72 h, 0.1 µM [1, 5] of 70.8%. The viability at 72 h, 0.3 µM [1, 5] was 33.9%, the viability at 72 h, 1 µM [1, 5] was 1.17% and the GI50 [2] was 0.19 ± 0.03 µM. The “degradation of BRD2” value [3] was “potent degradation activity” and the remaining activity at 3 µM ([3]; Jurkat, 6 h, 3 μM, 6 h, Fig. 4j, read-out: BRD2/Vinculin intensity (relative to DMSO control group)) was 30.7%.
